Data on 1 compound can be found in US8962646B2, “Peripherally acting opioid compounds” (Alkermes, Inc., priority 2011, dated 2015).

The target in data set [1] is T1, human μ opioid receptor (Homo sapiens (Human), UniProt P35372). The settings on record: CHO cell membranes, cloned human receptor, […] [3H]DAMGO; read-out: Binding affinity μ (Ki, nm).
In data set [2] the test system is CFA-induced weight bearing deficits. The experiment in a line: CFA induced weight bearing deficits in rats.
Experimental: Animals were habituated to the weight bearing test apparatus for 2 days prior to the start of the experiment. On Day 0, rats were tested in the weight bearing apparatus to measure baseline weight bearing of untreated hind paws. Following baseline testing, animals were injected intra-plantar with Complete Freund's Adjuvant (CFA). Using a syringe with a locking hub and 25 G needle, rats were injected via rear, left intra-plantar administration with 100 μL of 100% CFA (1.0 mg/ml) while under light isofluorane anesthesia. No treatment was administered to the right, rear, contralateral paw.
Intra-plantar test-compound administration was done while the animal was under light (3%) isofluorane anesthesia using 0.3 ml insulin syringe. The amount of anesthesia given to the animal during test compound administration was limited to a very short duration, so not to impede measurement of weight bearing at the 5 minute time point. On Day 1 (24 hrs post CFA), rats were tested in the weight bearing apparatus to measure CFA-induced changes in weight bearing. […] Following test compound administration, animals were retested in the weight bearing apparatus at the following time points: 5, 15, 30, 60 and 120 minutes post-test compound administration. Animals were retested on Day 2 (post-CFA) if there is a significant change in CFA induced weight bearing at the 120 minute time point on Day 1.
For another data set, the system named is mice. Description: In vivo behavioral studies (clinical observation assay). The settings on record: 10 mg/kg SC, observed over 24 hours.
The next data set addresses human κ opioid receptor (Homo sapiens (Human), UniProt P41145). The settings on record: read-out: Binding affinity κ (Ki, nm).
In data set [3] the test system is acetic acid induced writhing. The experiment in a line: Acetic-acid induced writhing model of inflammatory pain. It is filed as in vivo. The settings on record: mice, intraperitoneal, 1% acetic acid. On the procedure:
The number of writhes was counted for 15 minutes (3 consecutive 5 minute time bins). […] “Normal” posture was defined as movements opposite to those listed above (e.g. convex curvature of the spine, legs not extended, abdomen not lowered, tail in a straight or relaxed position, etc).
The total number of writhes over the 15 minute test session was used for all data analysis. All data was transformed using GraphPad Prism to % change from daily vehicle control for analysis based on the number of writhes produced by the saline vehicle control group (% change=# writhes in test group/mean # of writhes in daily vehicle control group*100).

Data set [4] deals with hot plate response latency. Description: Rat hot plate model of centrally mediated analgesia.
Experimental: Rats were then tested on the hot plate 5, 30, 60, 120, 240 and 360 minutes later. The amount of time it took to lick one hind paw is measured and is considered the response latency. The mean and SEM of the responses latencies for each experimental group were calculated and a line depicting mean hot plate latency vs. time was generated using GraphPad Prism. An increase in mean response latency above baseline following test compound administration is indicative of an antinociceptive effect.
In the next data set the target is human δ opioid receptor (Homo sapiens (Human), UniProt P41143). The experiment in a line: Receptor binding, competitive displacement of [3H]naltrindole. To be noted: CHO cell membranes, cloned human receptor, 0.2 nM [3H]naltrindole; uM; read-out: Binding affinity δ (Ki).
Data set [5] addresses T1, human μ opioid receptor. It is filed as biochemical. To be noted: [35S]GTPγS binding, CHO membranes. On the procedure: The [^35S]GTPγS assay measures the functional properties of a compound by quantifying the level of G-protein activation following agonist binding in studies using stably transfected cells, and is considered to be a measure of the efficacy of a compound. Membranes from CHO (Chinese Hamster Ovary) cells that stably expressed the cloned human Mu opioid receptor were used in the experiments. In a final volume of 0.5 mL, 12 different concentrations of each test compound were incubated with 7.5 μg of CHO cell membranes that stably expressed the human μ opioid receptor. The assay buffer consisted of 50 mM Tris-HCl, pH 7.4, 3 mM MgCl2, 0.2 mM EGTA, 3 μM GDP, and 100 mM NaCl. The final concentration of [^35S]GTPγS was 0.080 nM. Nonspecific binding was measured by inclusion of 10 μM GTPγS. Binding was initiated by the addition of the membranes. After an incubation of 60 min at 30° C., the samples were filtered through Schleicher & Schuell No. 32 glass fiber filters. The filters were washed three times with cold 50 mM Tris-HCl, pH 7.5, and were counted in 2 mL of Ecoscint scintillation fluid.

The test system of another data set is formalin-induced events. Description: Formalin model of pain. It is filed as in vivo. The settings on record: rats, subcutaneous. The procedure:
Nonfasted male Harlan rats were assigned to treatment group according to a randomized block study design to balance for test chamber and time of day, and day of test (if applicable). Each rat was administered either vehicle or test compound subcutaneously and then placed in their assigned test chamber and acclimated for 25-30 minutes with the chamber enclosure door left open. Data was not collected during this period. Following the acclimation period, each rat was removed individually starting with chamber 1, and dosed 5% formalin subcutaneously into the right rear paw plantar surface (formalin was made from a 37% stock solution, diluted down to 5% with saline).
Data collection started when the first rat was replaced in chamber 1 and the chamber door was closed and latched (skipped 1-minute acclimation screen on software). The number of events (also defined as “number of seconds”), defined as the number of 1-second bins with a change in dynamic force that exceeded an empirically determined threshold value (a value of arbitrary load units, which corresponded visually with rats quietly breathing or sniffing), were totaled in 5-minute intervals. In control rats, the number of events first increases within 5 minutes and then decreases during the subsequent 5 minutes (a quiescent phase) after formalin administration (Phase I, or Early Phase, of the formalin test), then increases again during the subsequent 35 minutes (Phase II, or Late Phase) of the formalin test. Formalin-induced movements detected by the system include licking and flinching of the affected paw as well as hopping and turning.
For constructing summaries for analysis of dose response curves or screens in the formalin test, the total number of events during the first 5 minutes after formalin administration was considered to be Phase I (Early Phase), and the total number of events for minutes 11 to 35 after formalin was considered to be Phase II (Late Phase). Data were analyzed using 1-way ANOVA, and comparisons of drug treatment groups were compared with control groups using appropriate, statistician-guided tests—most commonly Dunnett's for dose response curves and a Student's t-test for two-group (i.e. vehicle vs. positive control) comparison—utilizing JMP statistical software (SAS Institute Inc, Cary, N.C.). Data was expressed as means±SEM. An ED50 was calculated utilizing GraphPad Prism software.

“Also recorded” adds a separate entry of the source.

Experimental for mice: Groups of mice (n=5 per group; >60 days; 20-25 grams weight) were dosed with vehicle (0.9% sterile saline) or test compounds (10 mg/kg free base, SC) 30 minutes before the first observation period. The occurrence of Straub tail, piloerection, hyperlocomotion, hypolocomotion, circling of the cage, sedation, breathing abnormalities, diuresis, seizure activity and occurrences of death were recorded at 0.5, 1, 2, 4, 6 and 24 hours following dosing.
This is tested with our clinical observation assay where mice are injected with 10 mg/kg subcutaneously with drug and the behaviors are noted over 24 hours.

Take `CN1CC[C@]23CC(=O)CC[C@@]2(O)[C@H]1Cc1ccc(C(=O)NCCc2ccc(-c4cnc(O)nc4O)cc2)c(O)c13` [Compound 4]: the Ki on human μ opioid receptor [1] was 1.3 nM; on human κ opioid receptor, 190 nM; at human δ opioid receptor, above 1 µM. Besides, the “Analgesic effect with concurrent intra-plantar 75 ug naloxone methiodide” value in data set [2] (10 μg/paw intra-plantar) is recorded as “significantly inhibited”. In addition, the “Reversal of CFA-induced weight bearing deficits” value in [2] (intra-plantar, 3, 10 and 30 μg/paw) was “dose-dependent reversal of CFA-induced weight bearing deficits; also recorded: comparable to that seen with Morphine”. Besides, the “Clinical Observations after 10 mg/kg subcutaneous injection” value in the data set with mice is “None”. For the same compound, the ED50 in data set [3] (Mus musculus, ip) worked out at 0.7 mg/kg; with formalin-induced events (Rattus norvegicus, sc, read-out: Formalin test ED50) it was 3.62 mg/kg. Besides, in [3], the “Effect on acetic acid induced writhing” value is on record as “blocked acetic acid induced writhing in a dose-dependent manner”. The “Hot plate efficacy at the highest dose tested” value in [4] (SC 100 mg/kg) was “sub-maximal efficacy”. For the same compound, in data set [4] (SC 10, 30 and 100 mg/kg), the “Hot plate activity compared with morphine” value was “significantly less active than morphine”. Besides, on human μ opioid receptor [5], the “In vitro functional agonism for μ receptor Agonist?” value was “Yes”. Also, the “Early Phase versus Late Phase effect in formalin test” value in the data set on formalin-induced events is “more robust effect of Compound 4 in the Late Phase effects than the Early Phase”. Besides, the “Effect on formalin-induced events” value in the data set on formalin-induced events (dose response) is listed as “dose-dependent reversal of formalin-induced events”.
